Data from patent US20240158412A1 (Faxian Therapeutics, LLC, priority 2021, published 2024).

The compounds below were run against USP7 (Homo sapiens, UniProt Q93009) (assay: biochemical).
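Further: fluorescence intensity readout of USP7 enzymatic activity, reaction incubated 90 min at room temperature.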

USP7, sequence (Q93009 whole entry): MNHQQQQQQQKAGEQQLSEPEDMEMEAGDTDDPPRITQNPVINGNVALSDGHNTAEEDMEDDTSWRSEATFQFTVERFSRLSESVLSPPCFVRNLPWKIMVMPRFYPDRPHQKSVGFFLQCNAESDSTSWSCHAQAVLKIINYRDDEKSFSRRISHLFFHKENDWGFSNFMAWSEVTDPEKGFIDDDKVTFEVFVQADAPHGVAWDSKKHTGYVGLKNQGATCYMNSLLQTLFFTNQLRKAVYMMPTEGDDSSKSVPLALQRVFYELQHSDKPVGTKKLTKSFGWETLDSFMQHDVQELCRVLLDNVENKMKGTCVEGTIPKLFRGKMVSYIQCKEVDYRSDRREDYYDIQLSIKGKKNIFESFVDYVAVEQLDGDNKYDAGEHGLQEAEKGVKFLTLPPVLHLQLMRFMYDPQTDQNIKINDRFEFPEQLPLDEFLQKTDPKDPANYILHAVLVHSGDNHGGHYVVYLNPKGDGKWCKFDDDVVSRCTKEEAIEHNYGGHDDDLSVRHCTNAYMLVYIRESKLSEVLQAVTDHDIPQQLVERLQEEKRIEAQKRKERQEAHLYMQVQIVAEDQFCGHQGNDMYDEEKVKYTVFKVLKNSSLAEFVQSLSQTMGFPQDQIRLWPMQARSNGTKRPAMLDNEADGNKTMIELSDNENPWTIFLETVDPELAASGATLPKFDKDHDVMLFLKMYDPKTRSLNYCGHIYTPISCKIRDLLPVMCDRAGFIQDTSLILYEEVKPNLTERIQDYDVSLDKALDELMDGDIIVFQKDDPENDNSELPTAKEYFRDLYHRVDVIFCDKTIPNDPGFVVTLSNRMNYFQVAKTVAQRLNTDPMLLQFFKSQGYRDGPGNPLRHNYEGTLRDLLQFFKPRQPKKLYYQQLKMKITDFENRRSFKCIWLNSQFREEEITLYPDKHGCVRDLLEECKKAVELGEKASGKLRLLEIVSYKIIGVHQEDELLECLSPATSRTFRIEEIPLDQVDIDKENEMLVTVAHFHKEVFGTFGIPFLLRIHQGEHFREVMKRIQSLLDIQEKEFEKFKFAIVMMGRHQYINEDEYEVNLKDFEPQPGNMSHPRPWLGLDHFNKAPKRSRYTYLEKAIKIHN

IC50, > 1000 nM:
O=c1c2ccccc2ncn1Cc1cc2nccc(-c3cc(Cl)cc4c3N(C3CNC3)CCC4)c2s1 [Example 19, 3-[[7-[1-(azetidin-3-yl)-6-chloro-3,4-dihydro-2H-quinolin-8-yl]thieno[3,2-b]pyridin-2-yl]methyl]quinazolin-4-one]
Oc1ccnn1Cc1cc2nccc(-c3cc(Cl)cc4c3N(C3CNC3)CCC4)c2s1 [Example 37, 2-[[7-[1-(azetidin-3-yl)-6-chloro-3,4-dihydro-2H-quinolin-8-yl]thieno[3,2-b]pyridin-2-yl]methyl]pyrazol-3-ol]
O=C(c1cc2nccc(-c3cc(Cl)cc4c3N(C3CNC3)CCC4)c2s1)N1CCC1 [Example 38, Azetidin-1-yl-[7-[1-(azetidin-3-yl)-6-chloro-3,4-dihydro-2H-quinolin-8-yl]thieno[3,2-b]pyridin-2-yl]methanone]

IC50, 10 to 100 nM:
O=C1C2CC2C(=O)N1Cc1cc2nccc(-c3cc(Cl)cc4c3N(C3CNC3)CCC4)c2s1 (centres unmarked) [Example 13, 3-((7-(1-(azetidin-3-yl)-6-chloro-1,2,3,4-tetrahydroquinolin-8-yl)thieno[3,2-b]pyridin-2-yl)methyl)-3-azabicyclo[3.1.0]hexane-2,4-dione]
CC1(C)C2C(=O)N(Cc3cc4nccc(-c5cc(Cl)cc6c5N(C5CNC5)CCC6)c4s3)C(=O)C21 (centres unmarked) [Example 14, 3-[[7-[1-(azetidin-3-yl)-6-chloro-3,4-dihydro-2H-quinolin-8-yl]thieno[3,2-b]pyridin-2-yl]methyl]-6,6-dimethyl-3-azabicyclo[3.1.0]hexane-2,4-dione]
O=c1cccnn1Cc1cc2nccc(-c3cc(Cl)cc4c3N(C3CNC3)CCC4)c2s1 [Example 16, 2-[[7-[1-(azetidin-3-yl)-6-chloro-3,4-dihydro-2H-quinolin-8-yl]thieno[3,2-b]pyridin-2-yl]methyl]pyridazin-3-one]
Cc1ccc(=O)n(Cc2cc3nccc(-c4cc(Cl)cc5c4N(C4CNC4)CCC5)c3s2)n1 [Example 17, 2-[[7-[1-(azetidin-3-yl)-6-chloro-3,4-dihydro-2H-quinolin-8-yl]thieno[3,2-b]pyridin-2-yl]methyl]-6-methyl-pyridazin-3-one]
Cc1ccnn(Cc2cc3nccc(-c4cc(Cl)cc5c4N(C4CNC4)CCC5)c3s2)c1=O [Example 18, 2-[[7-[1-(azetidin-3-yl)-6-chloro-3,4-dihydro-2H-quinolin-8-yl]thieno[3,2-b]pyridin-2-yl]methyl]-4-methyl-pyridazin-3-one]
Cc1cnn(Cc2cc3nccc(-c4cc(Cl)cc5c4N(C4CNC4)CCC5)c3s2)c(=O)c1 [Example 22, 2-[[7-[1-(azetidin-3-yl)-6-chloro-3,4-dihydro-2H-quinolin-8-yl]thieno[3,2-b]pyridin-2-yl]methyl]-5-methyl-pyridazin-3-one]
O=C1COC(=O)N1Cc1cc2nccc(-c3cc(Cl)cc4c3N(C3CNC3)CCC4)c2s1 [Example 27, 3-[[7-[1-(azetidin-3-yl)-6-chloro-3,4-dihydro-2H-quinolin-8-yl]thieno[3,2-b]pyridin-2-yl]methyl]oxazolidine-2,4-dione]
CC1(CN2CC(=O)N(Cc3cc4nccc(-c5cc(Cl)cc6c5N(C5CNC5)CCC6)c4s3)C(=O)C2)CC1 [Example 29, 1-((7-(1-(azetidin-3-yl)-6-chloro-1,2,3,4-tetrahydroquinolin-8-yl)thieno[3,2-b]pyridin-2-yl)methyl)-4-((1-methylcyclopropyl)methyl)piperazine-2,6-dione]
N#Cc1cc2c(c(-c3ccnc4cc(CN5C(=O)CCC5=O)sc34)c1)N(C1CNC1)CCC2 [Example 32, 1-(azetidin-3-yl)-8-[2-[(2,5-dioxopyrrolidin-1-yl)methyl]thieno[3,2-b]pyridin-7-yl]-3,4-dihydro-2H-quinoline-6-carbonitrile]
Cc1cc2c(c(-c3ccnc4cc(CN5C(=O)CCC5=O)sc34)c1)N(C1CNC1)CCC2 [Example 33, 1-[[7-[1-(azetidin-3-yl)-6-methyl-3,4-dihydro-2H-quinolin-8-yl]thieno[3,2-b]pyridin-2-yl]methyl]pyrrolidine-2,5-dione]
O=c1cc(N2CCOCC2)cnn1Cc1cc2nccc(-c3cc(Cl)cc4c3N(C3CNC3)CCC4)c2s1 [Example 34]
O=c1cc(NC2CCC2)cnn1Cc1cc2nccc(-c3cc(Cl)cc4c3N(C3CNC3)CCC4)c2s1 [Example 35, 2-[[7-[1-(azetidin-3-yl)-6-chloro-3,4-dihydro-2H-quinolin-8-yl]thieno[3,2-b]pyridin-2-yl]methyl]-5-(cyclobutylamino)pyridazin-3-one]
O=c1cc(Oc2ccc(F)cc2)cnn1Cc1cc2nccc(-c3cc(Cl)cc4c3N(C3CNC3)CCC4)c2s1 [Example 36, 2-((7-(1-(azetidin-3-yl)-6-chloro-1,2,3,4-tetrahydroquinolin-8-yl)thieno[3,2-b]pyridin-2-yl)methyl)-5-(4-fluorophenoxy)pyridazin-3(2H)-one]

IC50, < 10 nM:
O=c1ccn(CC(F)F)c(=O)n1Cc1cc2nccc(-c3cc(Cl)cc4c3N(C3CNC3)CCC4)c2s1 [Example 23, 3-[[7-[1-(azetidin-3-yl)-6-chloro-3,4-dihydro-2H-quinolin-8-yl]thieno[3,2-b]pyridin-2-yl]methyl]-1-(2,2-difluoroethyl)pyrimidine-2,4-dione]
O=c1ccn(CC(F)(F)F)c(=O)n1Cc1cc2nccc(-c3cc(Cl)cc4c3N(C3CNC3)CCC4)c2s1 [Example 24, 3-[[7-[1-(azetidin-3-yl)-6-chloro-3,4-dihydro-2H-quinolin-8-yl]thieno[3,2-b]pyridin-2-yl]methyl]-1-(2,2,2-trifluoroethyl)pyrimidine-2,4-dione]
O=C1CNCC(=O)N1Cc1cc2nccc(-c3cc(Cl)cc4c3N(C3CNC3)CCC4)c2s1 [Example 28, 1-[[7-[1-(azetidin-3-yl)-6-chloro-3,4-dihydro-2H-quinolin-8-yl]thieno[3,2-b]pyridin-2-yl]methyl]piperazine-2,6-dione]
COCCn1ccc(=O)n(Cc2cc3nccc(-c4cc(Cl)cc5c4N(C4CNC4)CCC5)c3s2)c1=O [Example 30, 3-[[7-[1-(azetidin-3-yl)-6-chloro-3,4-dihydro-2H-quinolin-8-yl]thieno[3,2-b]pyridin-2-yl]methyl]-1-(2-methoxyethyl)pyrimidine-2,4-dione]

IC50, 101 to 1000 nM:
N#CC1(CN2CC(N3CCCc4cc(Cl)cc(-c5ccnc6cc(CN7C(=O)CCC7=O)sc56)c43)C2)CC1 [Example 12, 1-((3-(6-chloro-8-(2-((2,5-dioxopyrrolidin-1-yl)methyl)thieno[3,2-b]pyridin-7-yl)-3,4-dihydroquinolin-1(2H)-yl)azetidin-1-yl)methyl)cyclopropanecarbonitrile]
O=c1c2ccccc2cnn1Cc1cc2nccc(-c3cc(Cl)cc4c3N(C3CNC3)CCC4)c2s1 [Example 21, 2-[[7-[1-(azetidin-3-yl)-6-chloro-3,4-dihydro-2H-quinolin-8-yl]thieno[3,2-b]pyridin-2-yl]methyl]phthalazin-1-one]
CN1C(=O)N(Cc2cc3nccc(-c4cc(Cl)cc5c4N(C4CNC4)CCC5)c3s2)C(=O)C12CCC2 [Example 31, 7-((7-(1-(azetidin-3-yl)-6-chloro-1,2,3,4-tetrahydroquinolin-8-yl)thieno[3,2-b]pyridin-2-yl)methyl)-5-methyl-5,7-diazaspiro[3.4]octane-6,8-dione]
